Measurements reported in patent US9376418B2, “Substituted pyridine spleen tyrosine kinase (SYK) inhibitors” (Merck Sharp & Dohme Corp., priority 2012, dated 2016).

Target: T1, recombinant human GST-SYK (Homo sapiens, UniProt P43405)
T1 construct: purchased Carna Biosciences 08-176
Test: Homogeneous Time-Resolved Fluorescence (HTRF) assay for the recombinant human Syk enzyme
Assay type: biochemical
Conditions: HTRF assay, recombinant human GST-SYK; IC50 given as class symbols; read-out: rhSYK Activity
How it was run: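 HTRF read-out: Europium-anti-phosphotyrosine antibody (2 nM) plus SA-APC (70 nM) in EDTA-containing buffer quenched the reaction, and signal was read after 30 minutes. Kinase step used […], 250 nM biotinylated peptide, 25 μM ATP, 5 mM Mg, 45′ at room temperature.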

IC50 [nM] | SMILES
< 100 | Cc1cc(Nc2nccc(C(F)(F)F)n2)cc(-c2ccc(N3CC[C@H]3C(N)=O)nc2)c1 [Example 12.9, (2S)-1-[5-(3-methyl-5-{[4-(trifluoromethyl)pyrimidin-2-yl]amino}phenyl)pyridin-2-yl]azetidine-2-carboxamide]
< 100 | Cc1cc(Nc2nccc(C(F)(F)F)n2)cc(-c2ccc(CCC#N)nc2)c1 [Example 13.1, 3-[5-(3-Methyl-5-{[4-(trifluoromethyl)pyrimidin-2-yl]amino}phenyl)pyridin-2-yl]propanenitrile]
< 100 | Cc1cc(Nc2nccc(C(F)(F)F)n2)cc(-c2ccc(CCC(=O)O)nc2)c1 [Example 13.2, 3-[5-(3-Methyl-5-{[4-(trifluoromethyl)pyrimidin-2-yl]amino}phenyl)pyridin-2-yl]propanoic acid]
< 100 | Cc1cc(Nc2nccc(C(F)(F)F)n2)cc(-c2ccc(CCC(N)=O)nc2)c1 [Example 13.3, 3-[5-(3-Methyl-5-{[4-(trifluoromethyl)pyrimidin-2-yl]amino}phenyl)pyridin-2-yl]propanamide]
< 100 | Cc1cc(Nc2nccc(C(F)(F)F)n2)cc(-c2ccc(CCc3nnn[nH]3)nc2)c1 [Example 13.4, N-(3-Methyl-5-{6-[2-(1H-tetrazol-5-yl)ethyl]pyridin-3-yl}phenyl)-4-(trifluoromethyl)pyrimidin-2-amine]
< 100 | Cc1cc(Nc2nccc(C(F)(F)F)n2)cc(-c2ccc(CCc3noc(=O)[nH]3)nc2)c1 [Example 13.5, 3-{2-[5-(3-Methyl-5-{[4-(trifluoromethyl)pyrimidin-2-yl]amino}phenyl)pyridin-2-yl]ethyl}-1,2,4-oxadiazol-5(4H)-one]
< 100 | Cc1cc(Nc2nccc(C(F)(F)F)n2)cc(-c2ccc(CN3CCCC3=O)nc2)c1 [Example 14.1, 1-{[5-(3-Methyl-5-{[4-(trifluoromethyl)pyrimidin-2-yl]amino}phenyl)pyridin-2-yl]methyl}pyrrolidin-2-one]
< 100 | COCCNc1cncc(-c2cc(C)cc(Nc3nccc(C(F)(F)F)n3)c2)c1 [Example 15.1, N-(3-{5-[(2-Methoxyethyl)amino]pyridin-3-yl}-5-methylphenyl)-4-(trifluoromethyl)pyrimidin-2-amine]
< 100 | Cc1cc(Nc2nccc(C(F)(F)F)n2)cc(-c2cncc(NCC3CC3)c2)c1 [Example 15.11]
< 100 | Cc1cc(Nc2nccc(C(F)(F)F)n2)cc(-c2cncc(NCCN3CCOCC3)c2)c1 [Example 15.16]
< 100 | Cc1cc(Nc2nccc(C(F)(F)F)n2)cc(-c2cncc(NCC(=O)O)c2)c1 [Example 15.20, N-[5-(3-methyl-5-{[4-(trifluoromethyl)pyrimidin-2-yl]amino}phenyl)pyridin-3-yl]glycine]
< 100 | Cc1cc(Nc2nccc(C(F)(F)F)n2)cc(-c2cncc(NCc3ccc[nH]c3=O)c2)c1 [Example 15.21, 3-({[5-(3-methyl-5-{[4-(trifluoromethyl)pyrimidin-2-yl]amino}phenyl)pyridin-3-yl]amino}methyl)pyridin-2(1H)-one]
< 100 | Cc1cc(Nc2nccc(C(F)(F)F)n2)cc(-c2cncc(NCCO)c2)c1 [Example 15.22, 2-{[5-(3-Methyl-5-{[4-(trifluoromethyl)pyrimidin-2-yl]amino}phenyl)pyridin-3-yl]amino}ethanol]
< 100 | CC(=O)N1CCN(c2cc(-c3cc(C)cc(Nc4nccc(C(F)(F)F)n4)c3)ccn2)CC1 [Example 15.23, 1-{4-[4-(3-Methyl-5-{[4-(trifluoromethyl)pyrimidin-2-yl]amino}phenyl)pyridin-2-yl]piperazin-1-yl}ethanone]
< 100 | Cc1cc(Nc2nccc(C(F)(F)F)n2)cc(-c2ccnc(N3CCN(C=O)CC3)c2)c1 [Example 15.24, 4-[4-(3-methyl-5-{[4-(trifluoromethyl)pyrimidin-2-yl]amino}phenyl)pyridin-2-yl]piperazine-1-carbaldehyde]
100 to 1000 | Cc1cc(Nc2nccc(C(F)(F)F)n2)cc(-c2ccnc(N3CCC4(CCCC(=O)N4)CC3)c2)c1 [Example 15.25, 9-[4-(3-methyl-5-{[4-(trifluoromethyl)pyrimidin-2-yl]amino}phenyl)pyridin-2-yl]-1,9-diazaspiro[5.5]undecan-2-one]
1000 to 10000 | Cc1cc(Nc2nccc(C(F)(F)F)n2)cc(-c2ccnc(N3CCCC4(CCCCO4)C3)c2)c1 (centres unmarked) [Example 15.26, N-{3-methyl-5-[2-(1-oxa-8-azaspiro[5.5]undec-8-yl)pyridin-4-yl]phenyl}-4-(trifluoromethyl)pyrimidin-2-amine]
< 100 | Cc1cc(Nc2nccc(C(F)(F)F)n2)cc(-c2ccnc(N3CCCC4(CCCNC4=O)C3)c2)c1 (centres unmarked) [Example 15.27, 8-[4-(3-methyl-5-{[4-(trifluoromethyl)pyrimidin-2-yl]amino}phenyl)pyridin-2-yl]-2,8-diazaspiro[5.5]undecan-1-one]
100 to 1000 | Cc1cc(Nc2nccc(C(F)(F)F)n2)cc(-c2ccnc(N3CCCC4(CCCO4)C3)c2)c1 (centres unmarked) [Example 15.28, N-{3-methyl-5-[2-(1-oxa-7-azaspiro[4.5]dec-7-yl)pyridin-4-yl]phenyl}-4-(trifluoromethyl)pyrimidin-2-amine]
< 100 | Cc1cc(Nc2nccc(C(F)(F)F)n2)cc(-c2ccnc(N3CCCC4(CCNC4=O)C3)c2)c1 (centres unmarked) [Example 15.29, 7-[4-(3-methyl-5-{[4-(trifluoromethyl)pyrimidin-2-yl]amino}phenyl)pyridin-2-yl]-2,7-diazaspiro[4.5]decan-1-one]
< 100 | Cc1cc(Nc2nccc(C(F)(F)F)n2)cc(-c2ccnc(N3CCCC4(CCOC4=O)C3)c2)c1 (centres unmarked) [Example 15.30, 7-[4-(3-methyl-5-{[4-(trifluoromethyl)pyrimidin-2-yl]amino}phenyl)pyridin-2-yl]-2-oxa-7-azaspiro[4.5]decan-1-one]
100 to 1000 | Cc1cc(Nc2nccc(C(F)(F)F)n2)cc(-c2ccnc(N3CCC4(CCN(C)C4=O)CC3)c2)c1 [Example 15.31, 2-methyl-8-[4-(3-methyl-5-{[4-(trifluoromethyl)pyrimidin-2-yl]amino}phenyl)pyridin-2-yl]-2,8-diazaspiro[4.5]decan-1-one]
< 100 | Cc1cc(Nc2nccc(C(F)(F)F)n2)cc(-c2ccnc(NCC3CCC(=O)N3)c2)c1 (centres unmarked) [Example 15.32, 5-({[4-(3-methyl-5-{[4-(trifluoromethyl)pyrimidin-2-yl]amino}phenyl)pyridin-2-yl]amino}methyl)pyrrolidin-2-one]
100 to 1000 | Cc1cc(Nc2nccc(C(F)(F)F)n2)cc(-c2ccnc(NCCc3cnccn3)c2)c1 [Example 15.33, N-(3-methyl-5-{2-[(2-pyrazin-2-ylethyl)amino]pyridin-4-yl}phenyl)-4-(trifluoromethyl)pyrimidin-2-amine]
100 to 1000 | Cc1cc(Nc2nccc(C(F)(F)F)n2)cc(-c2ccnc(NC(C)c3ccccn3)c2)c1 (centres unmarked) [Example 15.34, N-(3-methyl-5-{2-[(1-pyridin-2-ylethyl)amino]pyridin-4-yl}phenyl)-4-(trifluoromethyl)pyrimidin-2-amine]
100 to 1000 | Cc1cc(Nc2nccc(C(F)(F)F)n2)cc(-c2ccnc(NCc3cnn(C)c3)c2)c1 [Example 15.35, N-[3-methyl-5-(2-{[(1-methyl-1H-pyrazol-4-yl)methyl]amino}pyridin-4-yl)phenyl]-4-(trifluoromethyl)pyrimidin-2-amine]
